Laboratory results taken from PubChem BioAssay AID1259407 (Chemical Carcinogenesis Research Information System (CCRIS), 2018).
Activity calls are given as the source filed them. The rule behind the calls is not given here.

Test system: CCRIS mutagenicity, Ames/micronucleus/aberration tests
Experiment: CCRIS mutagenicity studies
[1] = Test System: Ames Salmonella typhimurium, Strain/Indicator: TA98, Metabolic Activation: Rat, Liver, S9, Sodium phenobarbital and 5,6-benzoflavone (10%), Method: Preincubation
[2] = Test System: Ames Salmonella typhimurium, Strain/Indicator: TA100, Metabolic Activation: Rat, Liver, S9, Sodium phenobarbital and 5,6-benzoflavone (10%), Method: Preincubation
[3] = Test System: Ames Salmonella typhimurium, Strain/Indicator: TA1537, Metabolic Activation: Rat, Liver, S9, Sodium phenobarbital and 5,6-benzoflavone (10%), Method: Preincubation

SMILES: O=C(O)CCCl
- mutagenic call (Test System: Ames Salmonella typhimurium, Strain/Indicator: TA98, Metabolic Activation: None, Method: Preincubation): inactive; negative
- mutagenic call [1]: inactive; negative
- mutagenic call (Test System: Ames Salmonella typhimurium, Strain/Indicator: TA100, Metabolic Activation: None, Method: Preincubation): active; positive
- mutagenic call [2]: active; positive
- mutagenic call (Test System: Ames Salmonella typhimurium, Strain/Indicator: TA1535, Metabolic Activation: None, Method: Preincubation): active; positive
- mutagenic call (Test System: Ames Salmonella typhimurium, Strain/Indicator: TA1535, Metabolic Activation: Rat, Liver, S9, Sodium phenobarbital and 5,6-benzoflavone (10%), Method: Preincubation): active; positive
- mutagenic call [3]: inactive; negative
- mutagenic call (Test System: E. coli, Strain/Indicator: WP2uvrA/pKM101, Metabolic Activation: None, Method: Preincubation): active; positive
- mutagenic call (Test System: E. coli, Strain/Indicator: WP2uvrA/pKM101, Metabolic Activation: Rat, Liver, S9, Sodium phenobarbital and 5,6-benzoflavone (10%), Method: Preincubation): active; positive

SMILES: C=CCCl
- mutagenic call (End Point: IN VITRO CHROMOSOMAL ABERRATIONS, Test System: CHL CELLS, Metabolic Activation: RAT, LIVER, S-9, SODIUM PHENOBARBITAL AND 5,6-BENZOFLAVONE): active; positive (structural changes); authors report equivocal results for ploidy chang
- mutagenic call (Test System: AMES SALMONELLA TYPHIMURIUM, Strain/Indicator: TA100, Metabolic Activation: NONE, Method: DESICCATOR): active; positive
- mutagenic call (Test System: AMES SALMONELLA TYPHIMURIUM, Strain/Indicator: TA100, Metabolic Activation: NONE, Method: PREINCUBATION (20-180 MIN)): inactive; negative
- mutagenic call (Test System: AMES SALMONELLA TYPHIMURIUM, Strain/Indicator: TA100, Metabolic Activation: RAT, LIVER, S-9, AROCLOR 1254 (4 OR 12 MG/ML PROTEIN), Method: PREINCUBATION (20 OR 60 MIN)): inactive; negative
- mutagenic call (Test System: AMES SALMONELLA TYPHIMURIUM, Strain/Indicator: TA100, Metabolic Activation: RAT, LIVER, S-9, AROCLOR 1254 (4 OR 12 MG/ML PROTEIN), Method: PREINCUBATION (120 OR 180 MIN)): active; positive
- mutagenic call (Test System: AMES SALMONELLA TYPHIMURIUM, Strain/Indicator: TA100, Metabolic Activation: RAT, LIVER, S-9, AROCLOR 1254, SERUM ALBUMIN (4 MG/ML) (8 MG/ML PROTEIN), Method: PREINCUBATION (120 MIN)): inactive; negative
- mutagenic call (Test System: AMES SALMONELLA TYPHIMURIUM, Strain/Indicator: TA100, Metabolic Activation: RAT, LIVER, S-9, AROCLOR 1254, Method: DESICCATOR): active; positive
- mutagenic call (Test System: AMES SALMONELLA TYPHIMURIUM, Strain/Indicator: TA102, Metabolic Activation: S-9, Method: STANDARD PLATE): inactive; negative
- mutagenic call (Test System: AMES SALMONELLA TYPHIMURIUM, Strain/Indicator: TA1535, Metabolic Activation: NONE, Method: DESICCATOR): active; positive
- mutagenic call (Test System: AMES SALMONELLA TYPHIMURIUM, Strain/Indicator: TA1535, Metabolic Activation: NONE, Method: PREINCUBATION): active; positive
- mutagenic call (Test System: AMES SALMONELLA TYPHIMURIUM, Strain/Indicator: TA1535, Metabolic Activation: RAT, LIVER, S-9, AROCLOR 1254, Method: DESICCATOR): active; positive
- mutagenic call (Test System: AMES SALMONELLA TYPHIMURIUM, Strain/Indicator: TA1535, Metabolic Activation: RAT, LIVER, S-9, AROCLOR 1254, Method: PREINCUBATION): active; positive
- mutagenic call (Test System: AMES SALMONELLA TYPHIMURIUM, Strain/Indicator: TA2638, Metabolic Activation: S-9, Method: STANDARD PLATE): inactive; negative
- mutagenic call [1]: inactive; negative
- mutagenic call [2]: inactive; negative
- mutagenic call (Test System: Ames Salmonella typhimurium, Strain/Indicator: TA1537, Metabolic Activation: None, Method: Preincubation): inactive; negative
- mutagenic call [3]: inactive; negative
- mutagenic call (Test System: Ames Salmonella typhimurium, Strain/Indicator: YG7108, Metabolic Activation: None, Method: Standard plate): inactive; positive (negative when allyl chloride dissolved in water)
- mutagenic call (Test System: Ames Salmonella typhimurium, Strain/Indicator: YG7108, Metabolic Activation: Rat, Liver, S-9, Phenobarbital/beta-naphthoflavone, Method: Standard plate): active; positive
- mutagenic call (Test System: Ames Salmonella typhimurium, Strain/Indicator: YG7108pin3ERb5, Metabolic Activation: None, Method: Standard plate): active; positive
- mutagenic call (Test System: E. COLI, Strain/Indicator: WP2 (PKM101), Metabolic Activation: S-9, Method: STANDARD PLATE): inactive; negative
- mutagenic call (Test System: E. COLI, Strain/Indicator: WP2 UVRA (PKM101), Metabolic Activation: S-9, Method: STANDARD PLATE): inactive; negative
